Test results reported in US20250144250A1, “PH-SENSITIVE FLUOROPHORES” (The General Hospital Corporation, priority 2022, published 2025).

Tested on: ID8 cells
Experiment: Live-cell labeling and in vitro imaging: cellular uptake of NIR fluorophores
Assay type: cell-based, murine
Details: fluorescence microscopy
Protocol: FIG. 2 Cellular uptake of pH sensing NIR fluorophores via membrane transporters: In vitro tumor cell uptake of the pH sensing NIR probes under normoxic and hypoxic conditions. Murine cancer cell line ID8 cells were incubated at normoxic or hypoxic conditions (1% O2) for 24 h at 37° C. and then incubated for 30 min in the presence of 0.1 μM NIR probes. (a) Representative fluorescence images of cells are shown. The contrast was normalized across all images. Scale bar=100 μm. (b) Quantitative time-course measurements of the fluorescence intensity in cells. *P<0.05, **P<0.01 by two-way ANOVA followed by Tukey's multiple comparisons test (Normoxia vs. Hypoxia). Error bars show mean #s.d. (c) Inhibition assay of transporters to determine the entry mechanisms in ID8 cells. […] Representative fluorescence images of cells are shown. […] (d) Quantitative measurements of the fluorescence intensity in cells. *P<0.05 by two-way ANOVA followed by Tukey's multiple comparisons test. […]
Live-cell labeling and in vitro imaging: Murine ovarian cancer cells (ID8 cells) were obtained from Dr. Wang's lab in the Vincent Center for Reproductive Biology at Massachusetts General Hospital (MGH). […] Image acquisition and analysis were performed using IPLab software (Scanalytics, Fairfax, VA), and the fluorescent intensity of each cell was measured using ImageJ (National Institutes of Health, Bethesda, MD). […]

`CCN1/C(=C/C=C2\CCCC(/C=C/C3=[N+](CC)c4ccccc4C3(C)C)=C2c2ccccc2)C(C)(C)c2ccccc21` [PH03, 1-Ethyl-2-((E)-2-((E)-6-(2-((E)-1-ethyl-3,3-dimethylindolin-2-ylidene)ethylidene)-3,4,5,6-tetrahydro-[1,1′-biphenyl]-2-yl)vinyl)-3,3-dimethyl-3H-indol-1-ium iodide] was tested, and the accumulation in cells was “time-dependent manner”.

In the case of `CCN1/C(=C/C=C2\CCCC(/C=C/C3=[N+](CC)c4ccccc4C3(C)C)=C2N2CCNCC2)C(C)(C)c2ccccc21` [PH08], the accumulation in cells is reported as “time-dependent manner”.
